Results as given in ChEMBL document CHEMBL4251736, “Discovery of Novel Diarylpyrimidine Derivatives as Potent HIV-1 NNRTIs Targeting the "NNRTI Adjacent" Binding Site” (ACS Med Chem Lett, 2018).
pEC50, pIC50: −log10 of the molar value. Activity calls are given as the source filed them. The rule behind the calls is not given here.

What was measured:
[1] = Cytotoxicity against human MT4 cells assessed as decrease in cell viability after 5 days by MTT assay; type: cell-based
[2] = Selectivity index, ratio of CC50 for human MT4 cells to EC50 for wild type HIV1 3B; type: toxicity; conditions: read-out: Ratio CC50/EC50
[3] = tested on: Human immunodeficiency virus 1; assay: Antiviral activity against HIV1 harboring reverse transcriptase K103N mutant infected in human MT4 cells assessed as inhibition of viral replication after 5 days by MTT assay; type: functional, organism-based; conditions: Human immunodeficiency virus 1, MT4, 120 h
[4] = target: Human immunodeficiency virus type 1 reverse transcriptase (Human immunodeficiency virus 1, UniProt Q72547); assay: Inhibition of recombinant wild type HIV1 reverse transcriptase assessed as decrease in biotin-dUTP incorporation using DIG-labeled dUTP/biotin-labeled dUTP and dTTP as template and viral nucleotides after 1 hr by ELISA
[5] = tested on: Human immunodeficiency virus 2; assay: Antiviral activity against HIV2 ROD infected in human MT4 cells assessed as inhibition of virus-induced cytopathic effect after 5 days by MTT assay; type: functional, organism-based; conditions: ISOLATE ROD
[6] = tested on: Human immunodeficiency virus 1; assay: Antiviral activity against wild type HIV1 3B infected in human MT4 cells assessed as inhibition of virus-induced cytopathic effect after 5 days by MTT assay; type: functional, organism-based; conditions: Human immunodeficiency virus 1, 3B, MT4, 120 h
[7] = tested on: Human immunodeficiency virus 1; assay: Antiviral activity against HIV1 harboring reverse transcriptase E138K mutant infected in human MT4 cells assessed as inhibition of viral replication after 5 days by MTT assay; type: functional, organism-based; conditions: for pEC50: Human immunodeficiency virus 1, MT4, 120 h
[8] = tested on: Human immunodeficiency virus 1; assay: Fold resistance, ratio of EC50 for HIV1 harboring reverse transcriptase K103N mutant infected in human MT4 cells to EC50 for wild type HIV1 3B infected in human MT4 cells; type: functional
[9] = tested on: Human immunodeficiency virus 1; assay: Antiviral activity against HIV1 harboring reverse transcriptase F227L/V106A double mutant infected in human MT4 cells assessed as inhibition of viral replication after 5 days by MTT assay; type: functional, organism-based; conditions: Human immunodeficiency virus 1, MT4, 120 h
[10] = tested on: Human immunodeficiency virus 1; assay: Antiviral activity against HIV1 harboring reverse transcriptase Y188L mutant infected in human MT4 cells assessed as inhibition of viral replication after 5 days by MTT assay; type: functional, organism-based
[11] = tested on: Human immunodeficiency virus 1; assay: Antiviral activity against HIV1 RES056 harboring reverse transcriptase K103N/Y181C double mutant infected in human MT4 cells assessed as inhibition of viral replication after 5 days by MTT assay; type: functional, organism-based; conditions: Human immunodeficiency virus 1, RES056, MT4, 120 h
[12] = tested on: Human immunodeficiency virus 1; assay: Antiviral activity against HIV1 harboring reverse transcriptase Y181C mutant infected in human MT4 cells assessed as inhibition of viral replication after 5 days by MTT assay; type: functional, organism-based; conditions: Human immunodeficiency virus 1, MT4, 120 h
[13] = tested on: Human immunodeficiency virus 1; assay: Antiviral activity against HIV1 harboring reverse transcriptase L100I mutant infected in human MT4 cells assessed as inhibition of viral replication after 5 days by MTT assay; type: functional, organism-based; conditions: Human immunodeficiency virus 1, MT4, 120 h
[14] = tested on: Human immunodeficiency virus 1; assay: Potency index, ratio of etravirine EC50 to compound EC50 for HIV1 harboring reverse transcriptase K103N mutant infected in human MT4 cells; type: functional
[15] = tested on: Human immunodeficiency virus 1; assay: Potency index, ratio of etravirine EC50 to compound EC50 for wild type HIV1 3B infected in human MT4 cells; type: functional
[16] = tested on: Human immunodeficiency virus 1; assay: Potency index, ratio of etravirine EC50 to compound EC50 for HIV1 harboring reverse transcriptase Y181C mutant infected in human MT4 cells; type: functional
[17] = tested on: Human immunodeficiency virus 1; assay: Potency index, ratio of etravirine EC50 to compound EC50 for HIV1 harboring reverse transcriptase Y188L mutant infected in human MT4 cells; type: functional
[18] = tested on: Human immunodeficiency virus 1; assay: Potency index, ratio of etravirine EC50 to compound EC50 for HIV1 harboring reverse transcriptase E138K mutant infected in human MT4 cells; type: functional
[19] = tested on: Human immunodeficiency virus 1; assay: Potency index, ratio of etravirine EC50 to compound EC50 for HIV1 harboring reverse transcriptase L100I mutant infected in human MT4 cells; type: functional

SMILES | CC50 at 120 h [1] | selectivity ratio [2] | pEC50 [3] | pIC50 [4] | inhibition [5] | pEC50 [6] | pEC50 [7] | further results
Cc1cc(C#N)cc(C)c1Oc1nc(Nc2ccc(C#N)cc2)ncc1SCC(=O)NCc1ccc(O)cc1 | 5100 to 149000 nM | 152 to 15400 | 8.08 to 8.85 | 6.06 to 7.89 | inactive | > 8.00 | 7.46 to 8.22 | –
Cc1ccnc2c1NC(=O)c1cccnc1N2C1CC1 | – | – | – | – | – | – | – | inhibition [7]: Active
Cc1cc(C#N)cc(C)c1Oc1nc(Nc2ccc(C#N)cc2)ncc1SCC(=O)NCC1CCCO1 (stereo unspecified) | 5100 to 149000 nM | 152 to 15400 | 8.08 to 8.85 | 6.06 to 7.89 | inactive | > 8.00 | 7.46 to 8.22 | –
COC(=O)CS(=O)(=O)c1cnc(Nc2ccc(C#N)cc2)nc1Oc1c(C)cc(C#N)cc1C | 5100 to 149000 nM | 152 to 15400 | – | 6.06 to 7.89 | inactive | 7.16 | – | –
Cc1cc(C#N)cc(C)c1Oc1nc(Nc2ccc(C#N)cc2)ncc1SCC(=O)NCCN1CCN(C(=O)OC(C)(C)C)CC1 | 5100 to 149000 nM | 152 to 15400 | 7.35 to 8.85 | 6.06 to 7.89 | inactive | 7.49 | 6.80 to 8.22 | Ratio EC50 [8]: 0.4 - 1.9
C#CCNC(=O)CSc1cnc(Nc2ccc(C#N)cc2)nc1Oc1c(C)cc(C#N)cc1C | 5100 to 149000 nM | 152 to 15400 | 8.08 to 8.85 | 7.64 | inactive | 8.62 | 7.46 to 8.22 | pEC50 [9]: < 7.00; inhibition [10]: Active; pEC50 [11]: < 7.00; pEC50 [12]: 7.86 to 7.95; pEC50 [13]: 8.11; Ratio EC50 [14]: 1.3 - 2.3; Ratio EC50 [15]: 1.6
Cc1cc(C#N)cc(C)c1Oc1nc(Nc2ccc(C#N)cc2)ncc1SCC(=O)C(=O)O | 5100 to 149000 nM | 152 to 15400 | – | 6.06 to 7.89 | inactive | 6.66 to 8.62 | – | –
Cc1cc(C#N)cc(C)c1Oc1nc(Nc2ccc(C#N)cc2)ncc1SCC(=O)NCC1CC1 | 5100 to 149000 nM | 152 to 15400 | – | 6.06 to 7.89 | inactive | 8.42 | – | –
C=CCNC(=O)CSc1cnc(Nc2ccc(C#N)cc2)nc1Oc1c(C)cc(C#N)cc1C | 5100 to 149000 nM | 152 to 15400 | 8.08 to 8.85 | 6.06 to 7.89 | inactive | 8.42 to 8.62 | 7.46 to 8.22 | Ratio EC50 [14]: 1.3 - 2.3
COCCNC(=O)CSc1cnc(Nc2ccc(C#N)cc2)nc1Oc1c(C)cc(C#N)cc1C | 5100 to 149000 nM | 152 to 15400 | 8.08 to 8.85 | 7.59 | inactive | 8.42 | 7.46 to 8.22 | pEC50 [9]: < 7.00; inhibition [10]: Active; pEC50 [11]: < 7.00; Ratio EC50 [14]: 1.3 - 2.3
Cc1cc(C#N)cc(C)c1Oc1nc(Nc2ccc(C#N)cc2)ncc1SCC(=O)NCCCN1CCOCC1 | 27200 nM | 10000 | 8.85 | 7.07 to 7.08 | inactive | 8.59 | 8.22 | pEC50 [9]: < 7.00; pEC50 ([10]; Human immunodeficiency virus 1, MT4, 120 h): 7.79; pEC50 [11]: < 7.00; Ratio EC50 [16]: 1.5 - 3; Ratio EC50 [17]: 1.5 - 3; pEC50 [12]: 7.94; pEC50 [13]: 8.19; Ratio EC50 [18]: 1.5 - 3; Ratio EC50 [14]: 1.5 - 3; Ratio EC50 [15]: 1.5; Ratio EC50 [19]: 1.5 - 3
COC(=O)CCSc1cnc(Nc2ccc(C#N)cc2)nc1Oc1c(C)cc(C#N)cc1C | 5100 to 149000 nM | 152 to 15400 | – | 6.06 to 7.89 | inactive | 7.22 | – | –
Cc1cc(C#N)cc(C)c1Oc1nc(Nc2ccc(C#N)cc2)ncc1SCC(N)=O | 5100 to 149000 nM | 152 to 15400 | 7.35 to 8.85 | 6.06 to 7.89 | inactive | 6.66 to 8.62 | 7.46 to 8.22 | Ratio EC50 [8]: 0.4 - 1.9
Cc1cc(C#N)cc(C)c1Oc1nc(Nc2ccc(C#N)cc2)ncc1SCC(=O)Nc1ccc(S(C)(=O)=O)cc1 | 5100 to 149000 nM | 152 to 15400 | 8.08 to 8.85 | 6.06 to 7.89 | inactive | > 8.00 | 7.46 to 8.22 | –
Cc1cc(C#N)cc(C)c1Oc1nc(Nc2ccc(C#N)cc2)ncc1SCC(=O)NCCN1CCOCC1 | 5100 to 149000 nM | 152 to 15400 | 8.08 to 8.85 | 6.06 to 7.89 | inactive | 8.21 to 8.59 | 7.46 to 8.22 | Ratio EC50 [14]: 1.3 - 2.3
Cc1cc(C#N)cc(C)c1Oc1nc(Nc2ccc(C#N)cc2)ncc1SCC(=O)NC1CC1 | 5100 to 149000 nM | 152 to 15400 | 8.08 to 8.85 | 7.68 | inactive | 8.62 | 7.46 to 8.22 | pEC50 [9]: < 7.00; inhibition [10]: Active; pEC50 [11]: < 7.00; pEC50 [12]: 7.86 to 7.95; Ratio EC50 [14]: 1.3 - 2.3; Ratio EC50 [15]: 1.6
Cc1cc(C#N)cc(C)c1Oc1nc(Nc2ccc(C#N)cc2)ncc1SCC(=O)N1CC[C@H](NC(=O)OC(C)(C)C)C1 | 5100 to 149000 nM | 152 to 15400 | – | 6.06 to 7.89 | inactive | 7.47 | – | –
Cc1cn([C@H]2C[C@H](N=[N+]=[N-])[C@@H](CO)O2)c(=O)[nH]c1=O [ZIDOVUDINE] | – | – | – | – | – | – | 7.41 | pEC50 [12]: 7.85; pEC50 [13]: 8.08
Cc1cc(C#N)cc(C)c1Oc1nc(Nc2ccc(C#N)cc2)ncc1SCC(=O)N1CCN(C(=O)OC(C)(C)C)CC1 | 5100 to 149000 nM | 152 to 15400 | – | 6.06 to 7.89 | inactive | 7.05 | – | –
Cc1cc(C#N)cc(C)c1Oc1nc(Nc2ccc(C#N)cc2)ncc1SCC(=O)NC1CCN(C(=O)OC(C)(C)C)CC1 | 5100 to 149000 nM | 152 to 15400 | 7.35 to 8.85 | 6.06 to 7.89 | inactive | > 8.00 | 6.80 to 8.22 | Ratio EC50 [8]: 0.4 - 1.9
O=C1Nc2ccc(Cl)cc2[C@@](C#CC2CC2)(C(F)(F)F)O1 [EFAVIRENZ] | – | – | 7.09 | – | – | – | – | –
COC(=O)CSc1cnc(Nc2ccc(C#N)cc2)nc1Oc1c(C)cc(C#N)cc1C | 5100 to 149000 nM | 152 to 15400 | – | 6.06 to 7.89 | inactive | 7.18 | – | –
Cc1cc(C#N)cc(C)c1Oc1nc(Nc2ccc(C#N)cc2)ncc1SCC(=O)N1CCSCC1 | 5100 to 149000 nM | 152 to 15400 | 7.35 to 8.85 | 6.06 to 7.89 | inactive | 7.42 | 6.80 to 8.22 | Ratio EC50 [8]: 0.4 - 1.9
COC(=O)CCS(=O)(=O)c1cnc(Nc2ccc(C#N)cc2)nc1Oc1c(C)cc(C#N)cc1C | 5100 to 149000 nM | 9 | – | 6.06 to 7.89 | inactive | 5.81 | – | –
